# Measurements published in patent publication US20250144039A1, “COMPOSITIONS COMPRISING SURFACE MODIFIED GLOBULAR NANO-PARTICLES” (LANDA LABS (2012) LTD., priority 2022, published 2025).
# Tests used:
# skin of pigs' ears = test: Ex vivo penetration of composition into skin of pigs' ears (fluorescent marker histology); format: in vitro ADME; conditions: Nile red marker; pig ear skin, 20 hours at 32° C.
# Description: The distribution of nano-elements of the present compositions in various skin layers was tested ex vivo by applying core-shell and core-multi-shells (including a second shell forming active agent) nano-elements onto the skin of pigs' ears, the cores of the tested compositions including a fluorescent dye (Nile red) allowing histological monitoring.
# The following test and control compositions were prepared and used as set in Table 9.
# Tested compositions (2) and (3) were prepared by adding 2 mg of Nile red fluorescent marker during the preparation of the CSSC/fatty amine premix, as described in Example 6. All tested compositions were stored in closed containers at room temperature until they were used.
# The compositions were tested on three freshly harvested pig ears, collected on the same day, and kept fresh and cooled till use. The ears were washed with excess saline solution and wiped dry. They were then immobilized for the duration of the study by taping them onto a glass surface, their inner side facing down. Each ear was marked on its outer side with 6 circles having a diameter of about 1 cm. […]
# The above tissue sections were evaluated by an expert for the presence and intensity of the marker using a fluorescence microscope at objective magnification of ×10 and ×20.
# [1] = Zeta potential measurement (Malvern Zetasizer Nano ZS); format: physicochemical; conditions: 0.1 g dispersed in 9.9 g of distilled water
# Description: • Oven: DFO-240, by MRC, Israel • Thermo-rheometer: Thermo Scientific (Germany) Haake Mars III, with a C20/1° spindle, a gap of 0.052 mm, and a shear rate of 10 sec^−1 • Sonicator: VCX 750, by Sonics & Materials, USA • Dynamic Light Scattering and Zeta Potential measurement: Malvern Zetasizer Nano ZS, Malvern Instruments Ltd., UK • Conductivity meter: Eutech CON 700 by Thermo Fisher Scientific, USA • CryoTEM: Talos 200C by Thermo Fisher Scientific, USA, with a Lacey grid • Fluorescence microscope: BX60 microscope, equipped with a digital camera model DP73, by Olympus, Japan
# 8 g of double distilled water were placed in a 20 ml glass vial. 2 g of the nano-dispersion ND1 obtained in Example 2 were added, and the contents of the vial were shaken by hand for about 10 seconds until a homogeneous mixture was obtained (referred to as charged ND1 or cND1). Zeta potential of the mixture was measured by Malvern Zetasizer Nano ZS and found to be −14.7 mV. Unless otherwise stated, all measurements made with this instrument (e.g., zeta potential and particle size distribution) were performed on samples diluted 1:100 in double distilled water. All pH measurements reported in this and following examples were made at least using a pH test strip adapted to the pH range of relevance, and confirmed in some cases by using a suitable pH meter.
molecule,measurement,setting,value
"CCN(CC)c1ccc2nc3c4ccccc4c(=O)cc-3oc2c1 [Nile red, 9-(diethylamino)-5H-benzo[a]phenoxazin-5-one]",penetration into skin layers (fluorescence microscopy),skin of pigs' ears,No penetration of the fluorescent marker was observed
Sodium hyaluronate [LMW HA],Zeta potential of active agent alone,[1],−17 mV
